How the values were obtained:
female apoE4 mice = conditions: for probe trial (platform removed): time searching in the target quadrant: female apoE4 mice, P<0.05, Tukey-Kramer test, placebo-treated mice did not
Description: We tested whether administration of androgens might be successful for improving cognition in apoE4 female mice.

[1] = plasma hormone levels by radioimmunoassay (RIA); type: in vivo; conditions: testosterone-treated female mice, subcutaneous Silastic capsule, after the behavioral testing
women = conditions: literature: Sherwin 1988 (surgically menopausal women); Yaffe 2000 (women with apoE4); cited from earlier work
[2] = six-month-old female apoE4 mice, subcutaneous Silastic capsule, tested eight days after implantation

## C[C@]12CCC(=O)C[C@@H]1CC[C@@H]1[C@@H]2CC[C@]2(C)[C@@H](O)CC[C@@H]12 [dihydrotestosterone]
Female apoE4 mice
  probe trial (platform removed): time searching in the target quadrant: spent significantly more time searching in the target quadrant than in any of the other quadrants
Female apoE4 mice; [2]
  memory retention in the water maze: improved memory retention

## C[C@]12CC[C@H]3[C@@H](CCC4=CC(=O)CC[C@@]43C)[C@@H]1CC[C@@H]2O [testosterone]
Female apoE4 mice
  probe trial (platform removed): time searching in the target quadrant: spent significantly more time searching in the target quadrant than in any of the other quadrants
Female apoE4 mice; [2]
  memory retention in the water maze: improved memory retention
Female apoE4 mice; six-month-old female apoE4 mice, subcutaneous Silastic capsule, tested eight days after implantation, P<0.05 vs placebo
  learning in the water maze (hidden platform sessions): improved learning
[1]
  plasma testosterone levels: 5.61 ± 0.74 ng/mL
women
  cognition / cognitive function in women: improved cognition in surgically menopausal women

## Estrogen
women
  cognition / cognitive function in women: failed to preserve cognitive function in women with apoE4
